{"source": "patent US6376540B1", "about": "“Furan nitrone compounds” (Centaur Pharmaceuticals, Inc., priority 1996, dated 2002)", "key": {"[1]": {"test_system": "primary neuronal/astrocyte cultures", "assay": "Protection against Aβ(1-40)-induced neuronal cell loss", "assay_type": "cell-based, Sprague Dawley rat", "settings": "similar manner using Aβ(1-40) instead of Aβ(25-35)", "protocol": "Patients with Alzheimer's disease are known to suffer a progressive loss of neuronal cells. See, for example, P. J. Whitehause et al., (1982) Science, 215:1237-1239. […] Sprague Dawley rat hippocampus of 18-day-gestation embryos was excised and then dissociated by trituration to prepare primary neuronal/astrocyte cultures. Cells (3×10^5) were plated on 35 mm poly-D-lysine-coated plates containing Eagle's minimum essential medium supplemented with 10% fetal bovine serum. After 3-5 hours, the original medium was removed and replaced with 1 mL of fresh medium. Cultures were maintained at 37° C. in a 5% CO2/95% air humidified incubator.\nTo the cells (7 DIV) was added 30 μM of Aβ(25-35) dissolved in dH2O (stored at −20° C.) and 100 μM of the test compound (i.e., a compound of Example 1, 3, 4, 5, 6, 7, 8, 12 or 13 above) in 1% methylcellulose. Controls were also conducted without the test compound. The percentage of morphologically viable neurons was determined counting the number of viable neurons after 96 hours treatment compared to the number of neurons before treatment in the same premarked culture regions (three regions/culture, n=6).\nIn experiments conducted in a similar manner using Aβ(1-40) instead of Aβ(25-35), the compound prepared in Example 1 above reduced Aβ(1-40)-induced neuronal cell loss by 46% compared to the controls."}, "[2]": {"test_system": "rat permanent middle cerebral artery occlusion (MCAO) model", "assay": "Rat permanent middle cerebral artery occlusion (MCAO) stroke model", "assay_type": "in vivo", "protocol": "A rat permanent middle cerebral artery occlusion (MCAO) model was used to determine stroke treatment efficacy. MCAO is a representative model of acute CNS disorders. See, for example, M. D. Ginsberg et al., “Rodent Models of Cerebral Ischemia” (1989) Stroke, 20:1627-1642. In this stroke model, the middle cerebral artery was permanently occluded via cauterization to produce a focal stroke. N-isopropyl-α-(2-sulfofuran-5-yl)nitrone, sodium salt (prepared in Example 1 above) was then administered as a 10 mg/kg i.v. bolus dose three hours post MCAO through a catheter surgically implanted in the jugular vein. Two days post MCAO, the rats were sacrificed and the extent of brain damage assessed using tetrazolium staining (TTC staining) followed by computer image analysis to quantitate infarct volumes, i.e., the regions of dead tissue. The mean infarct volume for rats treated with the test compound was 24.7 mm^3 whereas the mean infarct volume for rats not treated with the test compound was 36.0 mm^3. […] Thus, N-isopropyl-α-(2-sulfofuran-5-yl)nitrone, sodium salt reduced the mean infarct volume of a stroke by 32% when administered three hours post stroke compared to controls."}, "synthetic Aβ(1-40)": {"target": "T1, synthetic Aβ(1-40) (Homo sapiens, UniProt P05067)", "T1 construct": "3 μL of Aβ(1-40)(3 μg) prepared with dH2O", "T1 sequence (P05067 672-711 limits assumed)": "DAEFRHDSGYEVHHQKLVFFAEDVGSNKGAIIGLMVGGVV", "assay": "Inhibition of Aβ(1-40) beta-pleated sheet formation (ThT fluorescence)", "assay_type": "biochemical", "settings": "10 μM compound, ThT 3 μM, PBS pH 6.0, 12 hours; read-out: inhibition of Aβ(1-40) beta-pleated sheet formation compared to the controls", "text": "The deposition of amyloid β-peptide (Aβ) is associated with the development of Alzheimer's disease. See, for example, G. G. Glenner et al. (1984) Biochem. Biophys. Res. Commun., 120:885-890; and R. E. Tanzi (1989) Ann. Med., 21:91-94. Accordingly, compounds which effectively disrupt the formation of Aβ(1-40) or Aβ(1-42) beta-pleated sheets are potentially useful for preventing and/or reversing such amyloid deposits. Thioflavin T (ThT) is known to rapidly associate with beta-pleated sheets, particularly the aggregated fibrils of synthetic Aβ(1-40). This association gives rise to a new excitation maximum at 440 nm and to enhanced emission at 490 nm.\nThe experiments were performed using a CytoFluor II fluorescence plate reader having the following parameters:\nInto each well was aliquoted 95 μl of ThT (3 μM) prepared in PBS (pH 6.0), 2 μL of the compound to be tested (10 μM) prepared with 0.05% of methylcellulose in PBS (pH 6.0), and 3 μL of Aβ(1-40)(3 μg) prepared with dH2O (the compounds prepared in Examples 1, 3, 4, 5, 6, 7, 8, 9, 11 and 12 were tested). The fluorescence measurement began when the Aβ(1-40) was added and continued for a total of 12 hours. The percent inhibition of beta-pleated sheet formation was calculated from the relative fluorescence unit difference between aggregation in the presence and in the absence of the test compounds."}}}
{"smiles": "CC(C)[N+]([O-])=Cc1ccc(S(=O)(=O)O)o1", "note": "[Example 1, N-Isopropyl-α-(2-sulfofuran-5-yl)nitrone]", "values": [{"measurement": "reduction of Aβ(1-40)-induced neuronal cell loss compared to the controls", "setting": "[1]", "value": 46, "unit": "%"}, {"measurement": "mean infarct volume", "setting": "[2]; 10 mg/kg i.v. bolus three hours post MCAO, two days post MCAO, TTC staining", "value": 24.7, "unit": "mm^3"}, {"measurement": "reduction of mean infarct volume compared to controls", "setting": "[2]; 10 mg/kg i.v. bolus three hours post stroke", "value": 32, "unit": "%"}, {"measurement": "inhibition at 10 µM", "setting": "synthetic Aβ(1-40)", "value": "15 to 71", "unit": "%"}]}
